The series is described as follows: Elimination half life in human at 200 mg/kg, po administered as single dose and measured upto 144 hrs. The settings on record: in vivo, read-out: beta t1/2 (converted). The format is ADME, organism-based.

From ChEMBL document CHEMBL5537159, “Discovery and SAR of JTE-151: A Novel RORγ Inhibitor for Clinical Development” (J Med Chem, 2024) come the findings set out here.

Take `Cc1ccc(NC(=O)C[C@H](CCC(=O)O)c2noc([C@H]3C[C@@H](CC(C)(C)C)C3)c2C2CC2)c(Cl)c1`: the half-life is 12.4 h.
